According to US7109193B2, “Tricyclic diazepines tocolytic oxytocin receptor antagonists” (Wyeth, priority 2001, dated 2006):

What was measured:
[1] = target: T1, human vasopressin V1a receptor subtype (Homo sapiens, UniProt P37288); test: Vasopressin binding in Chinese Hamster Ovary cell membranes expressing human vasopressin V1a subtype receptors; conditions: 100 nM, CHO cell membranes, [3H]Manning ligand, values without parentheses
T1 construct: host or cells: CHO cells (pZeoSV vector for the Thibonnier line)
T1 sequence (P37288 whole entry): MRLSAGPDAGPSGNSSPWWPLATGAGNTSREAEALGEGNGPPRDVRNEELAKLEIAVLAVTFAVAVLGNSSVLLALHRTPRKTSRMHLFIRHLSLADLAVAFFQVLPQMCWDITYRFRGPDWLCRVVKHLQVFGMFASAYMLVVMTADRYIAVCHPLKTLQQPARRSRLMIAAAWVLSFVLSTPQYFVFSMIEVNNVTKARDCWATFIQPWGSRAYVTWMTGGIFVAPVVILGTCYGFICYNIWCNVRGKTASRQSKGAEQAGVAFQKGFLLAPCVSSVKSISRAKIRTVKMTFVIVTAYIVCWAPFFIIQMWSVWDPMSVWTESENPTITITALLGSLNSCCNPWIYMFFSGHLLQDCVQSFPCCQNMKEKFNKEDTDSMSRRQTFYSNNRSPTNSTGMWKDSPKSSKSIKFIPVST
Outline: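 Membranes from CHO cells expressing human V1a receptor were incubated with [3H]Manning ligand (added as 20 μL of 8 nM) in pH 7.4 Tris buffer with MgCl2, BSA and protease inhibitors, 60 min at room temperature. Bound radioactivity was counted after filtration; values are percent inhibition at a stated concentration or IC50.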

inhibition at 0.1 µM [1]: -8% | melting point: 220 to 222 °C (dec.)
Compound: COc1cc(-c2ccccc2C(F)(F)F)c(Cl)cc1C(=O)N1Cc2ccc(C(=O)O)n2Cc2ccccc21 [Example 15, 10-{[6-Chloro-3-methoxy-2′-trifluoromethyl-[1,1′-biphenyl]-4-yl]carbonyl}-10,11-dihydro-5H-pyrrolo[2,1-c][1,4]benzodiazepine-3-carboxylic acid]
